Reference: ChEMBL document CHEMBL5260859, “Discovery and structure-activity relationship study of 2-piperazinyl-benzothiazole derivatives as potent and selective PPARδ agonists” (Bioorg Med Chem, 2023)

Experiments:
[1] = target: T1, Peroxisome proliferator-activated receptor alpha (Homo sapiens) (UniProt Q07869); assay: Agonist activity at Gal4-fused human PPAR-alpha ligand binding domain expressed in CHO-K1 cells assessed as receptor transactivation incubated for 24 to 48 hrs by luciferase reporter gene assay relative to control; assay type: cell-based; details: time lower 24.0 hrs, time upper […]
T1 sequence (whole entry): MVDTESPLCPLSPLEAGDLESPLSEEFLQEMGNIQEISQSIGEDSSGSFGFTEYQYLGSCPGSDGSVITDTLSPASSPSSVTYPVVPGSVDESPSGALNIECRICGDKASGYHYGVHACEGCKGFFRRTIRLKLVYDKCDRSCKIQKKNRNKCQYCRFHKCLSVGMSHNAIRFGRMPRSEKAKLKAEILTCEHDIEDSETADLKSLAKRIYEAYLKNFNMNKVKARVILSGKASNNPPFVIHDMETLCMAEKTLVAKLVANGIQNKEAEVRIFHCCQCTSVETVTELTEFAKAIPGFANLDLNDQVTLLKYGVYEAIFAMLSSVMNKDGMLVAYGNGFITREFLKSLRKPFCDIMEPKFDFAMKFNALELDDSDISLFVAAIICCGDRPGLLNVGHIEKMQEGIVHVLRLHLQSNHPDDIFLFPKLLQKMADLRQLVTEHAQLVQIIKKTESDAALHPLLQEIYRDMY

[2] = target: T2, Peroxisome proliferator-activated receptor alpha (Mus musculus, UniProt P23204); assay: Agonist activity at Gal4-fused mouse PPAR-alpha ligand binding domain expressed in CHO-K1 cells assessed as receptor transactivation incubated for 24 to 48 hrs by luciferase reporter gene assay; assay type: cell-based
T2 sequence (P23204 whole entry): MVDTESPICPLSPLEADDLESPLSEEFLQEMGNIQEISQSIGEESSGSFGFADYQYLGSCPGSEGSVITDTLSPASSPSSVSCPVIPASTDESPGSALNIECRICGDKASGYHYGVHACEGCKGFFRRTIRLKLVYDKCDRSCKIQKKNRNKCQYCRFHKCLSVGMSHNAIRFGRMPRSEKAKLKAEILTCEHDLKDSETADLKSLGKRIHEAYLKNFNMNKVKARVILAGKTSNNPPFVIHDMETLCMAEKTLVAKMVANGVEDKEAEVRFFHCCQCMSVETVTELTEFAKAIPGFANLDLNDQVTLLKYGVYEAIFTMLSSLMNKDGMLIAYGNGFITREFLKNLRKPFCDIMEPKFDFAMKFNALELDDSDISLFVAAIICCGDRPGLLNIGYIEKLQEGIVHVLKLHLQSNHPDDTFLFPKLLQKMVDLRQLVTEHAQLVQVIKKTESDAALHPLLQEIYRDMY

[3] = target: T3, Peroxisome proliferator-activated receptor gamma (Mus musculus, UniProt P37238); assay: Agonist activity at Gal4-fused mouse PPAR-gamma ligand binding domain expressed in CHO-K1 cells assessed as receptor transactivation incubated for 24 to 48 hrs by luciferase reporter gene assay; assay type: cell-based
T3 sequence (P37238 whole entry): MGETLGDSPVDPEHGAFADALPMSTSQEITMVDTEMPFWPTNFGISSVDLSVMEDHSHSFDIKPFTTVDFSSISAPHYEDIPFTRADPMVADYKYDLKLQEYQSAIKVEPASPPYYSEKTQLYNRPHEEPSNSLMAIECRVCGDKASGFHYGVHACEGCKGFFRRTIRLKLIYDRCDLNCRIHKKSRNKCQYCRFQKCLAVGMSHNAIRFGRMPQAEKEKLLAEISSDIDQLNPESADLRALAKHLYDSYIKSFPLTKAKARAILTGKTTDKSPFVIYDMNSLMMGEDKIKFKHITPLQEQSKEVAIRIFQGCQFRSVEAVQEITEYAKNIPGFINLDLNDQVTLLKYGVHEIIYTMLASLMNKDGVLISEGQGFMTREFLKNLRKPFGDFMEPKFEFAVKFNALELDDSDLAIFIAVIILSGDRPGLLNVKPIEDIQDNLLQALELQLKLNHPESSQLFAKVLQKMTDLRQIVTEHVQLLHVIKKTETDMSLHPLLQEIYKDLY

[4] = target: T4, Peroxisome proliferator-activated receptor delta (Mus musculus) (UniProt P35396); assay: Agonist activity at Gal4-fused mouse PPAR-delta ligand binding domain expressed in CHO-K1 cells assessed as receptor transactivation incubated for 24 to 48 hrs by luciferase reporter gene assay relative to control; assay type: cell-based; details: time lower 24.0 hrs, time upper […]
T4 sequence (whole entry): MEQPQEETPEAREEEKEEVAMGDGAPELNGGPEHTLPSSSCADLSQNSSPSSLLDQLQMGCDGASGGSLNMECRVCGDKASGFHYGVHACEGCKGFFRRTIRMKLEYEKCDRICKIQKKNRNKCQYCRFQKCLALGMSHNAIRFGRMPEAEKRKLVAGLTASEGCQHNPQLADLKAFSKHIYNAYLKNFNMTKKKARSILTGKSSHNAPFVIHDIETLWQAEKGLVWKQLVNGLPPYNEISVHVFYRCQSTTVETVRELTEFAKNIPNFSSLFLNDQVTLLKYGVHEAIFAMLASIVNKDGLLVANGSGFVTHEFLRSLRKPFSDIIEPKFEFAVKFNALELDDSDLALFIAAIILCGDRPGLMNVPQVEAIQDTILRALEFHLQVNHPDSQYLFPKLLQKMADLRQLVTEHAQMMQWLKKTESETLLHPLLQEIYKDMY

[5] = target: T5, Peroxisome proliferator-activated receptor alpha (Mus musculus) (UniProt P23204); assay: Agonist activity at Gal4-fused mouse PPAR-alpha ligand binding domain expressed in CHO-K1 cells assessed as receptor transactivation incubated for 24 to 48 hrs by luciferase reporter gene assay relative to control; assay type: cell-based; details: time lower 24.0 hrs, time upper […]
T5 sequence (whole entry): T2 sequence (P23204 whole entry)

[6] = target: T6, Peroxisome proliferator-activated receptor delta (Mus musculus, UniProt P35396); assay: Agonist activity at Gal4-fused mouse PPAR-delta ligand binding domain expressed in CHO-K1 cells assessed as receptor transactivation incubated for 24 to 48 hrs by luciferase reporter gene assay; assay type: cell-based
T6 sequence (P35396 whole entry): T4 sequence (whole entry)

[7] = system: Mus musculus; assay: Antihypercholesterolemic activity against hApoB100/hCETP-dTg hypercholesterolemic mouse model assessed as serum HDL-C level at 3 mg/kg, po administered once daily for 8 days; assay type: functional; details: time 8 day
[8] = system: Mus musculus; assay: Antihypercholesterolemic activity against hApoB100/hCETP-dTg hypercholesterolemic mouse model assessed as serum non-HDL-C level at 3 mg/kg, po administered once daily for 8 days; assay type: functional; details: time 8 day
[9] = target: T7, Peroxisome proliferator-activated receptor delta (Homo sapiens, UniProt Q03181); assay: Agonist activity at Gal4-fused human PPAR-delta ligand binding domain expressed in CHO-K1 cells assessed as receptor transactivation incubated for 24 to 48 hrs by luciferase reporter gene assay; assay type: cell-based
T7 sequence (Q03181 whole entry): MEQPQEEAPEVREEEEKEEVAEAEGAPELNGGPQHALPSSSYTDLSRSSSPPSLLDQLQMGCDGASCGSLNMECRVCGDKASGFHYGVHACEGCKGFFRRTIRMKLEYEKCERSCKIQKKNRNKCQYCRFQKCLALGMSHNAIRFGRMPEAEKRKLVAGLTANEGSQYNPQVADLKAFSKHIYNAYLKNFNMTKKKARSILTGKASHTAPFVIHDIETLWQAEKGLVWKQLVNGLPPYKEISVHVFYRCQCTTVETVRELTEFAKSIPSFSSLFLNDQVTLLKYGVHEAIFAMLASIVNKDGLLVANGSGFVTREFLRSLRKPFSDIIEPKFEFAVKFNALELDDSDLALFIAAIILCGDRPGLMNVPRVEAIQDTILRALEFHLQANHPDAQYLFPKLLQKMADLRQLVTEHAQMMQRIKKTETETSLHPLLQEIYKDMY

[10] = target: T8, Peroxisome proliferator-activated receptor delta (Homo sapiens) (UniProt Q03181); assay: Agonist activity at Gal4-fused human PPAR-delta ligand binding domain expressed in CHO-K1 cells assessed as receptor transactivation incubated for 24 to 48 hrs by luciferase reporter gene assay relative to control; assay type: cell-based; details: time lower 24.0 hrs, time upper […]
T8 sequence (whole entry): T7 sequence (Q03181 whole entry)

[11] = species: Mus musculus; assay: Selectivity ratio of EC50 for agonist activity at Gal4-fused mouse PPAR-alpha ligand binding domain expressed in CHO-K1 cells to EC50 for agonist activity at Gal4-fused mouse PPAR-delta ligand binding domain expressed in CHO-K1 cells; assay type: cell-based
[12] = target: T9, Peroxisome proliferator-activated receptor gamma (Homo sapiens, UniProt P37231); assay type: cell-based, CHO-K1
T9 sequence (P37231 whole entry): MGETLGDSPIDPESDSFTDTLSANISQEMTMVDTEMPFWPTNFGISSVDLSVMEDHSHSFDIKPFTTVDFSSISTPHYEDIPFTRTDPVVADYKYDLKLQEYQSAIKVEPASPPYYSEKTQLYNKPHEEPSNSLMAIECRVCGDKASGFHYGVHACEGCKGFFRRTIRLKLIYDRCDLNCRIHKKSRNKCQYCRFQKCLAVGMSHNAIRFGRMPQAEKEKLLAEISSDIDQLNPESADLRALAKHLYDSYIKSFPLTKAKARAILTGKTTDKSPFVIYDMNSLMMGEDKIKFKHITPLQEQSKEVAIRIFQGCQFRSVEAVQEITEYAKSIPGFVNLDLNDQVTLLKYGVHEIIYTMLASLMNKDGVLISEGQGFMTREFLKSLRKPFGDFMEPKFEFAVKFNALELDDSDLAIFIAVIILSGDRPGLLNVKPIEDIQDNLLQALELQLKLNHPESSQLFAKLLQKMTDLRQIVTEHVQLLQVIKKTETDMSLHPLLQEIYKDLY

[13] = species: Mus musculus; assay: Selectivity ratio of EC50 for agonist activity at Gal4-fused mouse PPAR-gamma ligand binding domain expressed in CHO-K1 cells to EC50 for agonist activity at Gal4-fused mouse PPAR-delta ligand binding domain expressed in CHO-K1 cells; assay type: cell-based

CC1CN(c2nc3ccc(Cl)cc3s2)CCC1CCOc1cc(CC(=O)O)ccc1Cl (stereo not given)
Emax [1]: 3%
EC50 [2]: 3600 nM
EC50 [3]: 1000 nM
Emax [4]: 28.7%
Emax [5]: 14.2%
EC50 [6]: 47 nM

Cc1ccc(CC(=O)O)cc1OCCN1CCN(c2nc3ccc(Cl)cc3s2)C[C@@H]1C
EC50 [2]: 4900 nM
EC50 [3]: 500 nM
Emax [4]: 21.7%
Emax [5]: 6.9%
EC50 [6]: 25 nM

Cc1cc(SCc2sc(-c3ccc(C(F)(F)F)cc3)nc2C)ccc1OCC(=O)O [GW501516]
Activity [7]: 141%
Activity [8]: 67%

C[C@@H]1CN(CCOc2cc(CC(=O)O)ccc2Cl)CCN1c1nc2ccc(Cl)cc2s1
EC50 [9]: 7.9 nM
Emax [10]: 21.9%
EC50 [2]: 3900 nM
EC50 [3]: 4.1 nM
Emax [4]: 27.6%
Emax [5]: 12.5%
EC50 [6]: 46 nM

Cc1cc(CC(=O)O)cc(CN2CCN(c3nc4ccc(C(F)(F)F)cc4s3)C[C@H]2C)c1
EC50 [9]: 9.9 nM
Emax [10]: 15.5%
EC50 [2]: 8000 nM
Emax [4]: 22.1%
Emax [5]: 19%
EC50 [6]: 34 nM

Cc1cc(CC(=O)O)cc(CN2CCN(c3nc4ccc(C(F)(F)F)cc4s3)[C@@H](CC(C)C)C2)c1
Emax [1]: 1.4%
EC50 [9]: 19 nM
Emax [10]: 13.6%
EC50 [2]: 5800 nM
Ratio EC50 [11]: 73
Emax [4]: 17.9%
EC50 [12]: 1500 nM
Emax [5]: 4.5%
EC50 [6]: 79 nM

Cc1ccc(CC(=O)O)cc1OCCN1CCN(c2nc3ccc(Cl)cc3s2)CC1
EC50 [9]: 33 nM
Emax [10]: 14.4%
Emax [4]: 25.3%
EC50 [6]: 110 nM

C[C@@H]1CN(c2nc3ccc(Cl)cc3s2)CCN1CCOc1cc(CC(=O)O)ccc1Cl
EC50 [9]: 16 nM
Emax [10]: 19.8%
EC50 [2]: 3200 nM
Emax [4]: 28.3%
Emax [5]: 21%
EC50 [6]: 47 nM

C[C@H]1CN(c2nc3ccc(Cl)cc3s2)CCN1CCOc1cc(CC(=O)O)ccc1Cl
EC50 [9]: 5 nM
Emax [10]: 15.5%
EC50 [2]: 7100 nM
Emax [4]: 23.2%
Emax [5]: 8.3%
EC50 [6]: 12 nM

CC[C@H]1CN(c2nc3ccc(Cl)cc3s2)CCC1CCOc1cc(CC(=O)O)ccc1Cl (stereo not given in full)
EC50 [2]: 3400 nM
EC50 [3]: 390 nM
Emax [4]: 31.3%
Emax [5]: 6.1%
EC50 [6]: 5.8 nM

Cc1cc(CC(=O)O)cc(CN2CCN(c3nc4ccc(C(F)(F)F)cc4s3)C[C@@H]2C)c1
EC50 [9]: 6.9 nM
Emax [10]: 19.5%
Emax [4]: 22.1%
Emax [5]: 1.1%
EC50 [6]: 28 nM

Cc1cc(CC(=O)O)cc(CN2CCN(c3nc4ccc(C(F)(F)F)cc4s3)[C@H](C(C)C)C2)c1
EC50 [9]: 3.7 nM
Emax [10]: 13.1%
EC50 [3]: 230 nM
Emax [4]: 14.6%
Emax [5]: 1.3%
EC50 [6]: 7.5 nM

Cc1cc(CC(=O)O)cc(CN2CCN(c3nc4ccc(C(F)(F)F)cc4s3)CC2)c1
EC50 [2]: 3000 nM
EC50 [3]: 3300 nM
Emax [4]: 19%
Emax [5]: 6.6%

CC(C)C[C@H]1CN(c2nc3ccc(Cl)cc3s2)CCC1CCOc1cc(CC(=O)O)ccc1Cl (stereo not given in full)
Emax [1]: 3.1%
EC50 [9]: 17 nM
Emax [10]: 23.2%
EC50 [3]: 660 nM
Ratio EC50 [13]: 11
Emax [4]: 28.3%
EC50 [12]: 1100 nM
Emax [5]: 4.6%
EC50 [6]: 61 nM

CC[C@H]1CN(Cc2cc(C)cc(CC(=O)O)c2)CCN1c1nc2ccc(C(F)(F)F)cc2s1
EC50 [2]: 3800 nM
EC50 [3]: 670 nM
Emax [4]: 30.8%
Emax [5]: 9.1%

C[C@H]1CN(CCOc2cc(CC(=O)O)ccc2Cl)CCN1c1nc2ccc(Cl)cc2s1
EC50 [9]: 17 nM
Emax [10]: 23.9%
EC50 [2]: 13000 nM
EC50 [3]: 150 nM
Emax [4]: 27.9%
Emax [5]: 16.7%
EC50 [6]: 27 nM

CC[C@@H]1CN(Cc2cc(C)cc(CC(=O)O)c2)CCN1c1nc2ccc(C(F)(F)F)cc2s1
EC50 [2]: 8500 nM
EC50 [3]: 40 nM
Emax [4]: 33.1%
Emax [5]: 2.8%
